Test [1] deals with T1, Prostaglandin G/H synthase 2 (Homo sapiens, UniProt P35354).
T1 sequence (P35354 whole entry): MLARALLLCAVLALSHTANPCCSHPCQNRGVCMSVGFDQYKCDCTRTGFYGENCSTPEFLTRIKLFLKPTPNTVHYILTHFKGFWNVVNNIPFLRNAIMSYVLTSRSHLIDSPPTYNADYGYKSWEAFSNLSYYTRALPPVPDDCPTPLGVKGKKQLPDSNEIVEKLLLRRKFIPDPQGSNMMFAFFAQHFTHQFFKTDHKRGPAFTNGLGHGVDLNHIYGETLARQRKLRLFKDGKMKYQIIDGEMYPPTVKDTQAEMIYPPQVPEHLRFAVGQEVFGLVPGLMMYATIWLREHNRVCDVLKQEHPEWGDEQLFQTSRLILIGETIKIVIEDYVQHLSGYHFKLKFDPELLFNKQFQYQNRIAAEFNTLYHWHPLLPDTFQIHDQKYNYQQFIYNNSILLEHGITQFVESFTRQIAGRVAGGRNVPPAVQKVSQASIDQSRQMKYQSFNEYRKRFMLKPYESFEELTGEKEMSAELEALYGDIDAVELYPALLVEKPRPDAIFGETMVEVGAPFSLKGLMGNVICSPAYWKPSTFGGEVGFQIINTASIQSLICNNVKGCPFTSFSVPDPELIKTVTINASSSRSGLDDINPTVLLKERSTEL
Kind of test: Inhibition of COX2 by microplate reader.

Test [2] has as its target Prostaglandin G/H synthase 1 (Homo sapiens, UniProt P23219). Kind of test: Inhibition of COX1 by microplate reader.

Chain of Prostaglandin G/H synthase 1 (P23219 whole entry): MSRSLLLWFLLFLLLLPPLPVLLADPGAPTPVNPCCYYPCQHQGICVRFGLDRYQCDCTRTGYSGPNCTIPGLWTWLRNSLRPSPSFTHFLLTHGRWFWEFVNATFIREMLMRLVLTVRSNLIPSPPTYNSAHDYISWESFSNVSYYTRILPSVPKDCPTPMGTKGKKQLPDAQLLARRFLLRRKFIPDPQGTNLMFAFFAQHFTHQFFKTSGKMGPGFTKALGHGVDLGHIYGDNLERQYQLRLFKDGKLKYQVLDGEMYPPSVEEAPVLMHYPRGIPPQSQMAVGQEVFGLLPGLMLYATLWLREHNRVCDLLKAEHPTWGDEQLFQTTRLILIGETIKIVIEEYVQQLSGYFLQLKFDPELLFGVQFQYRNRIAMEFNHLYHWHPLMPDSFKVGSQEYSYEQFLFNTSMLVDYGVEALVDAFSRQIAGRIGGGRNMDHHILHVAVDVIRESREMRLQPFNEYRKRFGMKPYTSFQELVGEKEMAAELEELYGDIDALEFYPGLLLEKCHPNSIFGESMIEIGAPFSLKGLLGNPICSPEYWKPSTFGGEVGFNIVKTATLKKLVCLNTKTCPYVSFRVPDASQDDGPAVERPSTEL

In the case of `COc1ccc(/C=C/C(=O)O[C@H]2[C@H](O[C@H]3[C@H](O)[C@@H](O)[C@H](O[C@@H]4CO[C@@H](O[C@@H]5[C@@H](O)[C@H](C)O[C@@H](O[C@H]6[C@H](O[C@H]7CC[C@]8(C)[C@H]9CC=C%10[C@@H]%11CC(C)(C)CC[C@]%11(C(=O)O[C@@H]%11O[C@H](CO[C@@H]%12O[C@H](CO)[C@@H](O[C@@H]%13O[C@@H](C)[C@H](O)[C@@H](O)[C@H]%13O)[C@H](O)[C@H]%12O)[C@@H](O)[C@H](O)[C@H]%11O)CC[C@@]%10(C)[C@]9(C)CC[C@H]8C7(C)C)OC[C@H](O)[C@@H]6O)[C@@H]5O)[C@H](O)[C@@H]4O)O[C@@H]3CO)O[C@H](CO)[C@@H](O)[C@@H]2O[C@@H]2O[C@H](CO[C@@H]3O[C@@H](C)[C@H](O)[C@@H](O)[C@H]3O)[C@@H](O)[C@H](O)[C@H]2O)cc1O` [CLEMATERNOSIDE E], the IC50 in test [1] was determined as 8.5 µM; in test [2], 8.3 µM.
In the same order, the values of `COc1ccc(/C=C/C(=O)O[C@H]2[C@H](O[C@H]3[C@H](O)[C@@H](O)[C@H](O[C@@H]4CO[C@@H](O[C@@H]5[C@@H](O)[C@H](C)O[C@@H](O[C@H]6[C@H](O[C@H]7CC[C@@]8(C)[C@@H](CC[C@]9(C)[C@@H]8CC=C8[C@@H]%10CC(C)(C)CC[C@]%10(C(=O)O[C@@H]%10O[C@H](CO[C@@H]%11O[C@H](CO)[C@@H](O[C@@H]%12O[C@@H](C)[C@H](O)[C@@H](O)[C@H]%12O)[C@H](O)[C@H]%11O)[C@@H](O)[C@H](O)[C@H]%10O)CC[C@]89C)[C@]7(C)CO)OC[C@@H](O)[C@@H]6O)[C@@H]5O)[C@H](O)[C@@H]4O)O[C@@H]3CO)O[C@H](CO)[C@@H](O)[C@@H]2O[C@@H]2O[C@H](CO)[C@@H](O)[C@H](O)[C@H]2O)cc1O` [CLEMATOCHINENOSIDE G] are 8.9 µM and 7.5 µM.
With `COc1ccc(/C=C/C(=O)OC[C@H]2O[C@@H](O[C@H]3[C@H](O)[C@@H](O)[C@H](O[C@@H]4CO[C@@H](O[C@@H]5[C@@H](O)[C@H](C)O[C@@H](O[C@H]6[C@H](O[C@H]7CC[C@]8(C)[C@H]9CC=C%10[C@@H]%11CC(C)(C)CC[C@]%11(C(=O)O[C@@H]%11O[C@H](CO[C@@H]%12O[C@H](CO)[C@@H](O[C@@H]%13O[C@@H](C)[C@H](O)[C@@H](O)[C@H]%13O)[C@H](O)[C@H]%12O)[C@@H](O)[C@H](O)[C@H]%11O)CC[C@@]%10(C)[C@]9(C)CC[C@H]8C7(C)C)OC[C@@H](O)[C@@H]6O)[C@@H]5O)[C@H](O)[C@@H]4O)O[C@@H]3CO)[C@H](O)[C@@H](O)[C@@H]2O)cc1O` [CLEMATOCHINENOSIDE F], the IC50 in test [1] stood at 7.2 µM; in test [2] it was 7.8 µM.
Turning to `C[C@@H]1O[C@@H](O[C@H]2[C@H](O)[C@@H](O)[C@H](OC[C@H]3O[C@@H](OC(=O)[C@]45CCC(C)(C)C[C@H]4C4=CC[C@@H]6[C@@]7(C)CC[C@H](O)C(C)(C)[C@@H]7CC[C@@]6(C)[C@]4(C)CC5)[C@H](O)[C@@H](O)[C@@H]3O)O[C@@H]2CO)[C@H](O)[C@H](O)[C@H]1O` [CIRENSENOSIDE O], the IC50 in test [1] and in test [2] was > 50 µM throughout.
As to `C[C@@H]1O[C@@H](O[C@H]2[C@H](O)[C@@H](O)[C@H](OC[C@H]3O[C@@H](OC(=O)[C@]45CCC(C)(C)C[C@H]4C4=CC[C@@H]6[C@@]7(C)CC[C@H](O[C@@H]8OC[C@H](O)[C@H](O)[C@H]8O[C@@H]8O[C@@H](C)[C@H](O)[C@@H](O[C@@H]9OC[C@@H](O)[C@@H](O)[C@H]9O)[C@H]8O)C(C)(C)[C@@H]7CC[C@@]6(C)[C@]4(C)CC5)[C@H](O)[C@@H](O)[C@@H]3O)O[C@@H]2CO)[C@H](O)[C@H](O)[C@H]1O` [HUZHANGOSIDE B], the 50% inhibitory concentration (IC50) in test [1] and in test [2] was > 50 µM each time.
As to `COc1ccc(/C=C/C(=O)O[C@H]2[C@H](O[C@H]3[C@H](O)[C@@H](O)[C@H](O[C@@H]4CO[C@@H](O[C@@H]5[C@@H](O)[C@H](C)O[C@@H](O[C@H]6[C@H](O[C@H]7CC[C@]8(C)[C@H]9CC=C%10[C@@H]%11CC(C)(C)CC[C@]%11(C(=O)O[C@@H]%11O[C@H](CO[C@@H]%12O[C@H](CO)[C@@H](O[C@@H]%13O[C@@H](C)[C@H](O)[C@@H](O)[C@H]%13O)[C@H](O)[C@H]%12O)[C@@H](O)[C@H](O)[C@H]%11O)CC[C@@]%10(C)[C@]9(C)CC[C@H]8C7(C)C)OC[C@H](O)[C@@H]6O)[C@@H]5O)[C@H](O)[C@@H]4O)O[C@@H]3CO)O[C@H](CO)[C@@H](O)[C@@H]2O[C@@H]2O[C@H](CO[C@@H]3O[C@@H](C)[C@H](O)[C@@H](O)[C@H]3O[C@@H]3O[C@H](CO)[C@@H](O)[C@H](O)[C@H]3O)[C@@H](O)[C@H](O)[C@H]2O)cc1O` [CLEMATERNOSIDE K], the values for the half-maximal inhibitory concentration (IC50) in test [1] and in test [2] were 6.7 µM and 5.9 µM, respectively.
On to `C[C@@H]1O[C@@H](O[C@H]2[C@H](O)[C@@H](O)[C@H](OC[C@H]3O[C@@H](OC(=O)[C@]45CCC(C)(C)C[C@H]4C4=CC[C@@H]6[C@@]7(C)CC[C@H](O[C@@H]8OC[C@H](O)[C@H](O)[C@H]8O)[C@@](C)(CO)[C@@H]7CC[C@@]6(C)[C@]4(C)CC5)[C@H](O)[C@@H](O)[C@@H]3O)O[C@@H]2CO)[C@H](O)[C@H](O)[C@H]1O` [CAULOSIDE D], for which the IC50 in test [1] and in test [2] was > 50 µM throughout.
For the compound `C[C@@H]1O[C@@H](O[C@H]2[C@H](O)[C@@H](O)[C@H](OC[C@H]3O[C@@H](OC(=O)[C@]45CCC(C)(C)C[C@H]4C4=CC[C@@H]6[C@@]7(C)CC[C@H](O[C@@H]8OC[C@H](O)[C@H](O)[C@H]8O[C@@H]8O[C@@H](C)[C@H](O)[C@@H](O[C@@H]9OC[C@@H](O[C@@H]%10O[C@H](CO)[C@@H](O)[C@H](O)[C@H]%10O)[C@@H](O)[C@H]9O)[C@H]8O)[C@@](C)(CO)[C@@H]7CC[C@@]6(C)[C@]4(C)CC5)[C@H](O)[C@@H](O)[C@@H]3O)O[C@@H]2CO)[C@H](O)[C@H](O)[C@H]1O` [CLEMATICHINENOSIDE B], the IC50 in test [1] and in test [2] was > 50 µM in each case.
Regarding `C[C@@H]1O[C@@H](O[C@H]2[C@H](O)[C@@H](O)[C@H](OC[C@H]3O[C@@H](OC(=O)[C@]45CCC(C)(C)C[C@H]4C4=CC[C@@H]6[C@@]7(C)CC[C@H](O[C@@H]8OC[C@H](O)[C@H](O)[C@H]8O)C(C)(C)[C@@H]7CC[C@@]6(C)[C@]4(C)CC5)[C@H](O)[C@@H](O)[C@@H]3O)O[C@@H]2CO)[C@H](O)[C@H](O)[C@H]1O` [CIWUJIANOSIDE C3], the concentration for half-maximal inhibition (IC50) in test [1] and in test [2] was > 50 µM in each case.
Take `COc1ccc(/C=C/C(=O)O[C@@H]2[C@@H](O)[C@H](O[C@H]3[C@H](O)[C@@H](O)[C@H](O[C@@H]4CO[C@@H](O[C@@H]5[C@@H](O)[C@H](C)O[C@@H](O[C@H]6[C@H](O[C@H]7CC[C@@]8(C)[C@@H](CC[C@]9(C)[C@@H]8CC=C8[C@@H]%10CC(C)(C)CC[C@]%10(C(=O)O[C@@H]%10O[C@H](CO[C@@H]%11O[C@H](CO)[C@@H](O[C@@H]%12O[C@@H](C)[C@H](O)[C@@H](O)[C@H]%12O)[C@H](O)[C@H]%11O)[C@@H](O)[C@H](O)[C@H]%10O)CC[C@]89C)[C@]7(C)CO)OC[C@@H](O)[C@@H]6O)[C@@H]5O)[C@H](O)[C@@H]4O)O[C@@H]3CO)O[C@H](CO)[C@H]2O)cc1O` [CLEMATOCHINENOSIDE D]: the IC50 is 7.8 µM in test [1] and 8.8 µM in test [2].
For the compound `C[C@@H]1O[C@@H](O[C@H]2[C@H](O[C@H]3CC[C@]4(C)[C@H]5CC=C6[C@@H]7CC(C)(C)CC[C@]7(C(=O)O[C@@H]7O[C@H](CO[C@@H]8O[C@H](CO)[C@@H](O[C@@H]9O[C@@H](C)[C@H](O)[C@@H](O)[C@H]9O)[C@H](O)[C@H]8O)[C@@H](O)[C@H](O)[C@H]7O)CC[C@@]6(C)[C@]5(C)CC[C@H]4C3(C)C)OC[C@H](O)[C@@H]2O)[C@H](O)[C@H](O)[C@H]1O` [HEDERASAPONIN B], the IC50 in test [1] and in test [2] was > 50 µM in each case.
As for `COc1ccc(/C=C/C(=O)O[C@H]2[C@H](O[C@H]3[C@H](O)[C@@H](O)[C@H](O[C@@H]4CO[C@@H](O[C@@H]5[C@@H](O)[C@H](C)O[C@@H](O[C@H]6[C@H](O[C@H]7CC[C@@]8(C)[C@@H](CC[C@]9(C)[C@@H]8CC=C8[C@@H]%10CC(C)(C)CC[C@]%10(C(=O)O[C@@H]%10O[C@H](CO[C@@H]%11O[C@H](CO)[C@@H](O[C@@H]%12O[C@@H](C)[C@H](O)[C@@H](O)[C@H]%12O)[C@H](O)[C@H]%11O)[C@@H](O)[C@H](O)[C@H]%10O)CC[C@]89C)[C@]7(C)CO)OC[C@@H](O)[C@@H]6O)[C@@H]5O)[C@H](O)[C@@H]4O)O[C@@H]3CO)O[C@H](CO)[C@@H](O)[C@@H]2O[C@@H]2O[C@H](CO[C@@H]3O[C@@H](C)[C@H](O)[C@@H](O)[C@H]3O[C@@H]3O[C@H](CO)[C@@H](O)[C@H](O)[C@H]3O)[C@@H](O)[C@H](O)[C@H]2O)cc1O` [CLEMATOCHINENOSIDE A], the IC50 in test [1] worked out at 6.7 µM; in test [2], 7.8 µM.
Turning to `C[C@@H]1O[C@@H](O[C@H]2[C@H](O[C@H]3CC[C@]4(C)[C@H]5CC=C6[C@@H]7CC(C)(C)CC[C@]7(C(=O)O[C@@H]7O[C@H](CO[C@@H]8O[C@H](CO)[C@@H](O[C@@H]9O[C@@H](C)[C@H](O)[C@@H](O)[C@H]9O)[C@H](O)[C@H]8O)[C@@H](O)[C@H](O)[C@H]7O)CC[C@@]6(C)[C@]5(C)CC[C@H]4C3(C)CO)OC[C@H](O)[C@@H]2O)[C@H](O)[C@H](O)[C@H]1O` (stereo partly specified) [KIZUTA SAPONIN K12], the IC50 in test [1] and in test [2] was > 50 µM in each case.

For the origin of these results see ChEMBL document CHEMBL1177732, “Triterpene saponins from Clematis chinensis and their potential anti-inflammatory activity” (J Nat Prod, 2010).
